Laboratory results taken from patent publication US20140275197A1, “ALPHA-2 ADRENERGIC AGONIST FOR TREATING INTRAOCULAR PRESSURE AND OCULAR DISEASES THROUGH INTRAVITREAL AND INTRACAMERAL ROUTES” (priority 2013, published 2014).
Entries after “also recorded” stand apart in the source; their conditions may differ.

What was measured:
dutch belted rabbits [1] = experiment: Intraocular pressure lowering after bolus intracameral (IC) injection at equimolar concentration; type: in vivo, rabbit
From the text: Due to the chemical similarity and the pharmacokinetics profile of brimonidine, 4-bromo-N-imidazolidin-2-ylidene-1-H-benzimidazol-5-amine and dexmedetomidine, it would be expected for these molecules to have a similar behavior following intravitreal bolus injection into the back of the eye.

dutch belted rabbits [2] = experiment: Intraocular pressure lowering after intravitreal (IVT) injection at equimolar concentration; type: in vivo, rabbit
[3] = rat, in vivo, po; cited from earlier work
[4] = in vivo
[5] = cited from earlier work
[6] = increasing amount of brimonidine

SMILES	potency versus brimonidine and dexmedetomidine (dutch belted rabbits [1]; administered intracamerally at equimolar concentration, normotensive rabbits)	IOP decrease compared with brimonidine and dexmedetomidine (dutch belted rabbits [1]; bolus intracameral injection, equimolar concentration, rabbits)	IOP decrease compared with brimonidine and dexmedetomidine (dutch belted rabbits [2])	amount found in urine [3]	level in the systemic circulation [4]	time for which the level in the aqueous humor is maintained [4] [h]	clearance from the aqueous humor ([5]; following topical dosing)	passage through cornea and sclera ([5]; following topical dosing)	effect of increasing the amount on half life in the aqueous humor [5, 6]	effect of increasing the amount on systemic exposure [5, 6]
Brc1c(N=C2NCCN2)ccc2[nH]cnc12 [4-bromo-N-imidazolidin-2-ylidene-1-H-benzimidazol-5-amine]	at least 50 fold	more efficacious at decreasing lop than brimonidine and dexmedetomidine; also recorded: outperforms brimonidine; also recorded: more effective than brimonidine and dexmedetomidine	more efficacious at decreasing IOP than brimonidine and dexmedetomidine; also recorded: outperforms brimonidine; also recorded: more potent and efficacious than brimonidine	trace amounts	undetectable levels	≥ 8	–	–	–	–
Brc1c(NC2=NCCN2)ccc2nccnc12 [brimonidine, (5-bromo-quinoxalin-6-yl)-imidazolidin-2-ylidene-amine]	–	–	–	–	–	–	rapidly cleared	readily pass through the cornea and sclera	does not improve its half life	increased systemic exposure
Nc1cc(Cl)c(N=C2NCCN2)c(Cl)c1 [apraclonidine, 2,6-dichloro-N-imidazolidin-2-ylidene-benzene-1,4-diamine]	–	–	–	–	–	–	rapidly cleared	–	–	–
